Experimental data reported in publication PMC1851987, “Identification of the Endogenous Key Substrates of the Human Organic Cation Transporter OCT2 and Their Implication in Function of Dopaminergic Neurons” (PLoS ONE, 2007).

Key:
OCT2 = molecular target: T1, OCT2 (Homo sapiens, UniProt O15244, S270A); experiment: Substrate search: uptake from fetal bovine serum into OCT2-transfected vs control HEK-293 cells, ESI-LC-MS-MS; details: 30 min incubation with 100% fetal bovine serum, OCT2 vs HEK-293 cells without OCT2
T1 sequence (O15244 1-555 S270A): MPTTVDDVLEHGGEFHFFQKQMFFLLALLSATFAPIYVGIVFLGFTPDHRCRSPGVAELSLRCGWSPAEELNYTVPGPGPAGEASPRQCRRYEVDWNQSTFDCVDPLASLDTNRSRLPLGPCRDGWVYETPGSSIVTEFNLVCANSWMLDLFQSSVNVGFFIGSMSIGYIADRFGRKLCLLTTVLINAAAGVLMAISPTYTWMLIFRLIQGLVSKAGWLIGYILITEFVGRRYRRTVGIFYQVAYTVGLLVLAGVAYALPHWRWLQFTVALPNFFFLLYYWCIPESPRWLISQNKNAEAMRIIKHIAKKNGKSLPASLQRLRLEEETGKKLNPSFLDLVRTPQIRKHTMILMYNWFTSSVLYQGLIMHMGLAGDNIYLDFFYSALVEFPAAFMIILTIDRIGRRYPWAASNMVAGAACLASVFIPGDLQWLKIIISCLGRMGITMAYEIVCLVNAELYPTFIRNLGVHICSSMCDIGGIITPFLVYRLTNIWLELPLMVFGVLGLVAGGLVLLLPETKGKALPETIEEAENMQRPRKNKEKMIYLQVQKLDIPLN
Description: Uptake experiments were conducted in OCT2-transfected human embryonic kidney cells (HEK-293) by incubation with fetal bovine serum. Specific OCT2-mediated uptake of a compound from serum was assessed in comparison to HEK-293 cells without OCT2 expression by running positive electrospray ionization tandem mass spectrometry analysis (ESI-LC-MS-MS).
After termination of uptake by washing with ice-cold HEPES-Krebs buffer and protein precipitation with 4 mmol/l perchloric acid or 100% acetonitrile in the case of brain homogenates, lysates were analyzed by LC-MS-MS operating in product scan positive electrospray ionisation mode (ESI) on a TSQ Quantum triple-quadrupole tandem mass spectrometer equipped with a thermostated (5°C) Surveyor autosampler and a thermostated (30°C) Surveyor HPLC system (Thermo Electron). Spray voltage was set at 4500 V, and capillary temperature was kept at 350°C. Nitrogen sheath gas and auxiliary gas pressure were 40 and 4 psi respectively. The collision gas was argon and collision-induced dissociation (CID) took place at 1.5 mTorr and 25 eV. […] 1-Methyl-4-phenyl-pyridinium iodide (MPP^+, 500 ng/ml) was applied as internal standard (IS) and the m/z 170→128 transition was simultaneously recorded by single reaction monitoring (SRM) at 36 eV collision energy. […]

[1] = molecular target: T2, organic cation transporter OCT2 (wild-type 400R) (Homo sapiens, UniProt O15244, S270A); experiment: Specific uptake into OCT2 (wild-type) transfected HEK-293 cells vs empty vector, LC-MS-MS; details: for influx clearance Clin: specific uptake after incubation with 10 µmol/l, mean (s.e.m.), n = 3
T2 sequence (O15244 1-555 S270A): T1 sequence (O15244 1-555 S270A)

[2] = test system: HEK-293 cells expressing OCT2; experiment: MTT reduction cell viability assay, OCT2 (wild-type 400R) transfected HEK-293 cells; format: cell-based, human; details: cyclo(his-pro) 10 µmol/l, 12 h prior to salsolinol treatment
Description: (§1) Cell viability was assessed in HEK-293 cells, human dopaminergic neuroblastoma cells (SH-SY5Y) and human glioblastoma cells (HTZ-146) by the MTT test as described.[22] […] For indication of metabolic activity, cells were treated with MTT reagent (15 µl of 1 mg/ml stock solution per well) for 1 h, and after drying of culture plates for 1 h at 37°C, the resulting formazan dye was extracted with isopropanol/HCl (100 µl 0.04 mol/l per well) and absorbance was determined spectrophotometrically at 568 nm.

[3] = weak bases; cited from earlier work
OCT2 mutant 400C variant = experiment: MTT reduction cell viability assay, HEK-293 cells expressing OCT2 mutant 400C variant; format: cell-based; details: human, 48 h exposure after 12 h incubation with cyclo(his-pro) 10 µmol/l, read-out: EC50 (95% confidence interval), cell viability
OCT2 (wild-type 400R) [4] = molecular target: T3, OCT2 (wild-type 400R) (Homo sapiens, UniProt O15244, S270A); experiment: Specific uptake into OCT2 (wild-type) transfected HEK-293 cells vs empty vector, LC-MS-MS; details: human, pH 7.4
T3 sequence (O15244 1-555 S270A): T1 sequence (O15244 1-555 S270A)

OCT2 (wild-type 400R) [5] = experiment: MTT reduction cell viability assay, OCT2 (wild-type 400R) transfected HEK-293 cells; format: cell-based, human; details: human, HEK-293 cells transfected with OCT2 (wild-type 400R); 48 h exposure, no pretreatment; read-out: EC50 (95% confidence interval), cell viability
Description: as §1

OCT1 = experiment: MTT reduction cell viability assay, OCT1-transfected HEK-293 cells; format: cell-based; details: human, HEK-293 cells transfected with OCT1; 48 h exposure; read-out: EC50 (95% confidence interval), cell viability
[6] = test system: HEK-293 cells expressing EMT; experiment: MTT reduction cell viability assay, EMT-transfected HEK-293 cells; format: cell-based; details: Homo sapiens, HEK293; 48 h exposure; read-out: EC50 (95% confidence interval), cell viability

Row | Structure (SMILES) | specific uptake from serum, fold above the control (OCT2) [fold] | dependence of specific uptake on pH ([1]; 10 µmol/l, 3 min incubation) | dependence of specific uptake on extracellular sodium concentration ([1]; 10 µmol/l, 3 min incubation, sodium chloride isoosmotically replaced with lithium chloride) | influx clearance Clin [1] | effect of pretreatment on salsolinol-induced degeneration [2] | pKS [3] | EC50 at 48 h (OCT2 mutant 400C variant) [µM] | N-methylation of intracellular salsolinol (of salsolinol concentration) ([1]; after 60 min of incubation, transfected HEK-293 cells) [%] | Km at 1 min (OCT2 (wild-type 400R) [4]) [µM] | EC50 at 48 h (OCT2 (wild-type 400R) [5]) [µM] | EC50 at 48 h (OCT1) [µM] | EC50 [6] [µM]
1 | O=C1NC(Cc2c[nH]cn2)C(=O)N2CCCC12 (stereo not shown) [cyclo(his-pro), histidyl-proline diketopiperazine] | > 2 | pH influenced specific uptake | independent of extracellular sodium concentration | 25.0 (4.2) µl/mg/min | prevented degeneration | 6.5–7.5 | – | – | – | – | – | –
2 | CC1NCCc2cc(O)c(O)cc21 (stereo not shown) [salsolinol] | – | – | – | 18.5 (2.6) µl/mg/min | – | – | 406 | ≤ 2.5 | 130 | 192 | 627 | 998
